By TGI is commonly meant the concentration giving total growth inhibition.

Among the test systems are MDA-MB-231 breast; SK-MEL-2 melanoma; LOX IMVI melanoma; SW-620 colon; MOLT-4 leukemia; OVCAR-8 ovarian; A498 renal; NCI-H460 lung; SR leukemia; HS 578T breast; DU-145 prostate; MDA-MB-435; CCRF-CEM leukemia; MALME-3M melanoma; T-47D breast; PC-3 prostate; CAKI-1 renal; SF-268 CNS; K-562 leukemia.
Holding throughout (assay): DTP human tumour cell line panel, 48 h

The structures appear in SMILES notation.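 Method: 48-hour compound exposure of cells in 96-well plates, five concentrations, linear interpolation of endpoints. TGI: concentration producing complete growth inhibition.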

With `CN(C)c1ccc(N=C2N=C(Nc3ccccc3)C(=Nc3ccccc3)S2)cc1`, the total growth inhibition concentration (TGI) with MDA-MB-231 breast, in the assay with SK-MEL-2 melanoma, in the assay with LOX IMVI melanoma, in the assay with SW-620 colon, in the assay with MOLT-4 leukemia and in the assay on OVCAR-8 ovarian was above 100 µM throughout. The TGI in the assay with A498 renal, in the assay with NCI-H460 lung, in the assay on SR leukemia, in the assay with HS 578T breast, in the assay with DU-145 prostate and in the assay with MDA-MB-435 was above 100 µM in each case. Besides, the TGI in the assay with CCRF-CEM leukemia, in the assay on MALME-3M melanoma, in the assay with T-47D breast, with PC-3 prostate, in the assay on CAKI-1 renal and in the assay on SF-268 CNS was above 100 µM in each case.

On to `COC(=O)C1(Cc2ccccc2)Cc2ccccc2C1O` (stereo not drawn), for which the concentration for total growth inhibition (TGI) with MDA-MB-231 breast, with LOX IMVI melanoma, in the assay with SW-620 colon, with MOLT-4 leukemia, with OVCAR-8 ovarian and in the assay on A498 renal was above 100 µM throughout. In addition, the TGI in the assay with NCI-H460 lung, in the assay on SR leukemia, in the assay on HS 578T breast, in the assay with DU-145 prostate, in the assay with MDA-MB-435 and in the assay with CCRF-CEM leukemia was above 100 µM each time. For the same compound, the TGI in the assay with MALME-3M melanoma, with T-47D breast, in the assay with PC-3 prostate, in the assay on CAKI-1 renal, with K-562 leukemia and with SF-268 CNS was above 100 µM each time.

On to `O=S(Cc1ccccc1)c1ccccc1Cn1cccc1` (stereo not drawn), for which the TGI in the assay on MDA-MB-231 breast is above 100 µM; with SK-MEL-2 melanoma, above 100 µM; in the assay with LOX IMVI melanoma, above 100 µM; with SW-620 colon it was above 100 µM; in the assay on NCI-H460 lung it was above 100 µM; in the assay with SR leukemia, 83.4 µM. Moreover, the total growth inhibition concentration (TGI) in the assay on HS 578T breast, in the assay on DU-145 prostate, with MDA-MB-435, in the assay on CCRF-CEM leukemia, in the assay with MALME-3M melanoma and in the assay with T-47D breast was above 100 µM each time. Moreover, the concentration for total growth inhibition (TGI) with PC-3 prostate, in the assay with CAKI-1 renal, with K-562 leukemia and in the assay with SF-268 CNS was above 100 µM each time.

On to `Cc1cccc2c(N)c3cccc(C(=O)NCC[N+](C)(C)Cc4ccccc4[N+](=O)[O-])c3nc12`, for which the TGI in the assay on MDA-MB-231 breast is above 55.6 µM; in the assay with SK-MEL-2 melanoma, above 54.6 µM; in the assay on LOX IMVI melanoma, above 100 µM; in the assay on SW-620 colon, above 53 µM; with MOLT-4 leukemia it was 9.34 µM; in the assay with OVCAR-8 ovarian it was above 30.7 µM. Further, the TGI in the assay on A498 renal is above 29.3 µM; with NCI-H460 lung it was 16 µM; with SR leukemia it was 2.09 µM; with HS 578T breast, above 31.2 µM; in the assay with DU-145 prostate it was above 100 µM; with MDA-MB-435 it was above 46.9 µM. The TGI with MALME-3M melanoma is 25.8 µM; with T-47D breast, above 100 µM; in the assay with PC-3 prostate, 45.2 µM; in the assay on CAKI-1 renal it was above 100 µM; in the assay on K-562 leukemia, above 31.8 µM; with SF-268 CNS, above 35.2 µM.

For the compound `Cc1c(-c2ccccc2)c(C#N)c2nnn(-c3ccc(Cl)cc3)c(=O)n12`, the total growth inhibition concentration (TGI) in the assay on MDA-MB-231 breast, in the assay with SK-MEL-2 melanoma, with LOX IMVI melanoma, with SW-620 colon, in the assay on OVCAR-8 ovarian and with A498 renal was above 100 µM each time. Further, the TGI in the assay on NCI-H460 lung, in the assay with SR leukemia, in the assay with HS 578T breast, with DU-145 prostate, with MDA-MB-435 and in the assay on CCRF-CEM leukemia was above 100 µM each time. Also, the TGI in the assay with MALME-3M melanoma was above 100 µM; in the assay on T-47D breast it was 47.4 µM; in the assay on PC-3 prostate, 50.9 µM; with CAKI-1 renal, above 100 µM; with K-562 leukemia it was above 100 µM; in the assay with SF-268 CNS it was above 100 µM.

Take `Cn1cc(NC(=O)Nc2cc(C(=O)Nc3cc(C(=O)Nc4ccc5cc(S(=O)(=O)O)cc(S(=O)(=O)O)c5c4)n(C)c3)n(C)c2)cc1C(=O)Nc1cc(C(=O)Nc2ccc3cc(S(=O)(=O)O)cc(S(=O)(=O)O)c3c2)n(C)c1`: the TGI with MDA-MB-231 breast, in the assay with LOX IMVI melanoma, in the assay with SW-620 colon, in the assay with MOLT-4 leukemia, in the assay on OVCAR-8 ovarian and in the assay on NCI-H460 lung was above 100 µM each time. For the same compound, the TGI with SR leukemia, in the assay with HS 578T breast, in the assay with DU-145 prostate, in the assay on MDA-MB-435, in the assay with CCRF-CEM leukemia and in the assay with MALME-3M melanoma was above 100 µM in each case. Besides, the TGI in the assay with T-47D breast, in the assay on PC-3 prostate, in the assay on K-562 leukemia and with SF-268 CNS was above 100 µM throughout.

`Fc1cc2nc3n(c2cc1F)C(c1c(F)cccc1F)SC3` (stereo not drawn): the TGI with MDA-MB-231 breast, in the assay on SK-MEL-2 melanoma, in the assay on LOX IMVI melanoma, in the assay on SW-620 colon, with MOLT-4 leukemia and in the assay with OVCAR-8 ovarian was above 100 µM in each case. Further, the total growth inhibition concentration (TGI) in the assay with A498 renal is 98.3 µM; with NCI-H460 lung, above 100 µM; with SR leukemia, above 100 µM; with HS 578T breast it was above 100 µM; in the assay on DU-145 prostate it was above 100 µM; with MDA-MB-435, above 100 µM. Besides, the total growth inhibition concentration (TGI) in the assay with MALME-3M melanoma, in the assay with T-47D breast, in the assay on PC-3 prostate, in the assay on CAKI-1 renal and in the assay with SF-268 CNS was above 100 µM throughout.

For the compound `Cc1n[nH]c(=O)n1C1CC1`, the TGI in the assay on MDA-MB-231 breast, in the assay with LOX IMVI melanoma, with SW-620 colon, in the assay on MOLT-4 leukemia, with OVCAR-8 ovarian and with NCI-H460 lung was above 100 µM each time. Besides, the TGI with SR leukemia, in the assay with HS 578T breast, in the assay on DU-145 prostate, with MDA-MB-435, with CCRF-CEM leukemia and in the assay on MALME-3M melanoma was above 100 µM in each case. Besides, the concentration for total growth inhibition (TGI) in the assay on T-47D breast, with PC-3 prostate, in the assay on CAKI-1 renal, in the assay with K-562 leukemia and with SF-268 CNS was above 100 µM in each case.

The values are drawn from PubChem BioAssay (NCI).
